The values that follow come from the supplement of paper PMC8024199.

Holding throughout (assay): drug sensitivity score (DSS) (DSS score); higher = more sensitive (stronger growth inhibition); extreme values may be limits of the assay
Assay [1] concerns Ba/F3 P210-BCR-ABL1 RUNX1-/- (mouse). The essentials:
(§1)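 Each value is a drug sensitivity score derived from CellTiter-Glo luminescence scaled between vehicle and positive-control wells. Mouse Ba/F3 clones, CRISPR/Cas9-edited at a target exon or edited controls, were seeded at 10,000 cells per well in RPMI with 10% FBS and treated for 72 h at 37 °C and 5% CO2. Compounds from a 528-compound library were tested at five concentrations over a 10,000-fold range, and scores were averaged over two replicates.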

The test system of assay [2] is Ba/F3 P210-BCR-ABL1 RUNX1wt/wt control (mouse). The essentials: as §1
Assay [3] relates to Ba/F3 P210-BCR-ABL1 RUNX1-/mut (mouse). Put shortly:
as §1

SMILES strings stand for the structures. ± gives the standard deviation of the averaged measurements.

On to `CC[C@@H](C(=O)[C@@H](C)[C@@H](O)[C@H](C)[C@@H]1O[C@@H]([C@@H](CC)C(=O)O)CC[C@@H]1C)[C@H]1O[C@]2(C=C[C@@H](O)[C@]3(CC[C@@](C)([C@H]4CC[C@](O)(CC)[C@H](C)O4)O3)O2)[C@H](C)C[C@@H]1C` [Salinomycin], for which the drug sensitivity score in assay [1] was 19.6 ± 7.6; in assay [2] it was 17 ± 8.3; in assay [3], 17.6 ± 10.

For the compound `CC(C)n1nc(-c2ccc3oc(N)nc3c2)c2c(N)ncnc21` [Sapanisertib], the results for the drug sensitivity score in assay [1], in assay [2] and in assay [3] were 16.9 ± 0.35, 11.3 ± 0.49 and 16.6 ± 2.5, respectively.

Consider `CNC(=O)CN1CCC(Oc2cc3c(Nc4cccc(Cl)c4F)ncnc3cc2OC)CC1` [Sapitinib], for which the figures for the drug sensitivity score in assay [1], in assay [2] and in assay [3] were 0.35 ± 0.49, 0 and 0, respectively.

As for `CC1=C2C[C@H]3[C@@H](CC[C@@H]4C[C@H](NS(C)(=O)=O)CC[C@@]43C)[C@@H]2CC[C@@]2(C1)O[C@@H]1C[C@H](C)CN[C@H]1[C@H]2C` [Saridegib], the drug sensitivity score in assay [1] is 2.3 ± 0.28; in assay [2], 0; in assay [3] it was 2.15 ± 3.

On to `CC[C@H](CO)Nc1nc(NCc2ccccc2)c2ncn(C(C)C)c2n1` [Seliciclib], for which the figures for the drug sensitivity score in assay [1], in assay [2] and in assay [3] were 1.3 ± 0.14, 0 and 0.4 ± 0.57, respectively.

Turning to `O=C(/C=C\n1cnc(-c2cc(C(F)(F)F)cc(C(F)(F)F)c2)n1)NNc1cnccn1` [Selinexor], the drug sensitivity score in assay [1] is 24 ± 1.7; in assay [2], 16.55 ± 0.071; in assay [3], 23 ± 0.99.

Consider `Cc1cc(F)c(C(=O)Nc2cccc(-c3nncn3C(C)C)n2)cc1-n1cnc(C2CC2)c1` [Selonsertib], for which the drug sensitivity score in assay [1], in assay [2] and in assay [3] was 0 throughout.

As for `CN1CCN(C(=O)c2ccc3cc(CCNc4ncnc5ccc(C#N)cc45)ccc3c2)CC1` [Senexin B], the drug sensitivity score in assay [1] came out at 0.8; in assay [2], 0.15 ± 0.21; in assay [3] it was 1.1 ± 1.6.

In the case of `COCC[n+]1c2c(n(Cc3cnccn3)c1C)C(=O)c1ccccc1C2=O` [Sepantronium bromide], the drug sensitivity score in assay [1] was determined as 12.9 ± 1.5; in assay [2], 6.85 ± 0.49; in assay [3] it was 17.1 ± 1.1.

In the case of `Nc1nc2cc(-c3ccc4ncc(C(=O)N5CCOCC5)n4c3)ccc2o1` [Serabelisib], the drug sensitivity score in assay [1] turned out to be 1.5 ± 1.4; in assay [2] it was 0; in assay [3], 2.5 ± 3.5.

As to `O=C(O)c1ccc2c(c1)nc(Nc1cccc(Cl)c1)c1ccncc12` [Silmitasertib], the drug sensitivity score was determined as 6.45 ± 0.071 in assay [1], 4.05 ± 0.21 in assay [2] and 7.25 ± 2 in assay [3].

As to `CCC(C)(C)C(=O)O[C@H]1C[C@@H](C)C=C2C=C[C@H](C)[C@H](CC[C@@H]3C[C@@H](O)CC(=O)O3)[C@H]21` [Simvastatin], the drug sensitivity score turned out to be 0.4 ± 0.42 in assay [1], 0.05 ± 0.071 in assay [2] and 0.6 ± 0.85 in assay [3].

In the case of `CO[C@H]1C[C@@H]2CC[C@@H](C)[C@@](O)(O2)C(=O)C(=O)N2CCCC[C@H]2C(=O)O[C@H]([C@H](C)C[C@@H]2CC[C@@H](O)[C@H](OC)C2)CC(=O)[C@H](C)/C=C(\C)[C@@H](O)[C@@H](OC)C(=O)[C@H](C)C[C@H](C)/C=C/C=C/C=C/1C` [Sirolimus], the drug sensitivity score in assay [1] turned out to be 7.6 ± 1.7; in assay [2], 0.5 ± 0.71; in assay [3], 8.4 ± 3.4.

As for `COCCNCc1ccc(-c2cc3nccc(Oc4ccc(NC(=O)C5(C(=O)Nc6ccc(F)cc6)CC5)cc4F)c3s2)nc1` [Sitravatinib], the drug sensitivity score in assay [1] came to 8.95 ± 0.35; in assay [2] it was 0; in assay [3], 4.6 ± 0.71.

Regarding `Cc1c(C(=O)Nc2ccc(N3C[C@@H](C)O[C@@H](C)C3)nc2)cccc1-c1ccc(OC(F)(F)F)cc1` [Sonidegib], the drug sensitivity score in assay [1] amounted to 1.3 ± 1.8; in assay [2] it was 0.15 ± 0.21; in assay [3], 1.3 ± 1.8.

For `C=CCN(/C=C1/C(=O)O[C@H](COC)[C@@]2(C)C1=C(O)C(=O)C1=C2[C@H](OC(C)=O)C[C@]2(C)C(=O)CC[C@@H]12)CC=C` [Sonolisib], the results for the drug sensitivity score in assay [1], in assay [2] and in assay [3] were 1.7 ± 1.1, 0 and 0.7 ± 0.99, respectively.

With `C=CC(=O)Nc1cccc(Nc2nc(Nc3ccc(OCCOC)cc3)ncc2F)c1` [Spebrutinib], the drug sensitivity score in assay [1], in assay [2] and in assay [3] was 0 throughout.

For the compound `CC(C)n1cnc2c(NCCc3ccc(O)cc3)nc(-c3csc4ccccc34)nc21` [StemRegenin 1], the drug sensitivity score in assay [1] was found to be 3.45 ± 2.9; in assay [2], 0.8 ± 0.28; in assay [3], 3.05 ± 3.9.

As to `CC(C)(O)CC(=O)NCCn1ccc2ncnc(Nc3ccc(Oc4cccc(C(F)(F)F)c4)c(Cl)c3)c21` [TAK-285], the drug sensitivity score in assay [1] came to 0; in assay [2], 0; in assay [3] it was 0.5 ± 0.71.

With `CCS(=O)(=O)c1cccc(-c2cc(C(=O)NC3CCN(C)CC3)c(C)c3[nH]c4ncc(C)cc4c23)c1` [TAK-901], the drug sensitivity score was found to be 5.8 ± 0.99 in assay [1], 0 in assay [2] and 3.55 ± 0.49 in assay [3].

`Cc1cccc(-c2[nH]c(CNc3ccccc3F)nc2-c2ccc3ncnn3c2)n1` [TEW-7197]: the results for the drug sensitivity score in assay [1], in assay [2] and in assay [3] were 2.35 ± 3.3, 0 and 0, respectively.

Take `Nc1nc(N)c2nc(-c3cccc(O)c3)c(-c3cccc(O)c3)nc2n1` [TG100-115]: the drug sensitivity score is 3.1 ± 0.57 in assay [1], 0 in assay [2] and 4.65 ± 0.49 in assay [3].

As to `CC(C)Oc1ccc(-c2nn([C@@H](C)c3oc4ccc(F)cc4c(=O)c3-c3cccc(F)c3)c3ncnc(N)c23)cc1F` [TGR-1202], the drug sensitivity score amounted to 3.4 ± 0.99 in assay [1], 0 in assay [2] and 1.2 ± 1.4 in assay [3].

As to `Cc1cc(C(C)Nc2ccccc2)c2nc(N3CCOCC3)cc(=O)n2c1` (stereo unspecified) [TGX-221], the drug sensitivity score in assay [1] was determined as 2.7 ± 2.4; in assay [2], 0; in assay [3], 2.4 ± 3.1.

Consider `Nc1nc(NC2CC2)cc(-c2cccc(Cl)c2Cl)n1` [TH588], for which the drug sensitivity score in assay [1] was 5.45 ± 0.35; in assay [2], 3.6 ± 1.1; in assay [3], 4.45 ± 4.7.

For the compound `Clc1ccccc1C(c1ccccc1)(c1ccccc1)n1cccn1` [TRAM-34], the drug sensitivity score in assay [1], in assay [2] and in assay [3] was 0 throughout.

`CN(C(=O)c1ccc(F)cc1C(F)(F)F)C1CCN(c2nnc(-c3ccnn3C)c3ccccc23)CC1` [Taladegib]: the drug sensitivity score in assay [1] stood at 0.85 ± 1.2; in assay [2] it was 0; in assay [3] it was 1.8 ± 2.5.

With `Cn1ncnc1[C@H]1c2n[nH]c(=O)c3cc(F)cc(c23)N[C@@H]1c1ccc(F)cc1` [Talazoparib], the drug sensitivity score in assay [1] is 15 ± 5.5; in assay [2], 2.7 ± 0.14; in assay [3], 16.2 ± 5.

As for `C[C@@H]1CN(Cc2ccc(F)cc2)[C@@H](C)CN1C(=O)c1cc2c(C(=O)C(=O)N(C)C)cn(C)c2cc1Cl` [Talmapimod], the drug sensitivity score was 0.25 ± 0.35 in assay [1], 0 in assay [2] and 0.1 ± 0.14 in assay [3].

In the case of `COc1cc(Nc2ncc(F)c(Nc3ccc4c(n3)NC(=O)C(C)(C)O4)n2)cc(OC)c1OC` [Tamatinib], the drug sensitivity score in assay [1] is 7.15 ± 0.78; in assay [2], 5.8 ± 0.28; in assay [3] it was 4.15 ± 0.071.

Regarding `CC/C(=C(\c1ccccc1)c1ccc(OCCN(C)C)cc1)c1ccccc1` [Tamoxifen], the drug sensitivity score turned out to be 6.2 ± 1.6 in assay [1], 3.5 ± 0.28 in assay [2] and 7.5 ± 1.3 in assay [3].

For the compound `O[C@H]1CC[C@H](Nc2ncc3nc(Nc4c(F)cc(F)cc4F)n([C@H]4CCOC4)c3n2)CC1` [Tanzisertib], the drug sensitivity score in assay [1] came out at 1.55 ± 0.78; in assay [2] it was 0; in assay [3], 1 ± 1.4.

As to `Cc1nc(-c2cn3c(n2)-c2ccc(-c4cnn(C(C)(C)C(N)=O)c4)cc2OCC3)n(C(C)C)n1` [Taselisib], the drug sensitivity score in assay [1] is 4.65 ± 0.49; in assay [2] it was 0.4 ± 0.57; in assay [3] it was 3.1 ± 4.1.

For `COc1cccc2c1c(O)c(C(=O)N(C)c1ccc(C(F)(F)F)cc1)c(=O)n2C` [Tasquinimod], the drug sensitivity score turned out to be 0.75 ± 1.1 in assay [1], 0.5 ± 0.71 in assay [2] and 2.15 ± 3 in assay [3].

Turning to `CCN(c1cc(-c2ccc(CN3CCOCC3)cc2)cc(C(=O)NCc2c(C)cc(C)[nH]c2=O)c1C)C1CCOCC1` [Tazemetostat], the values for the drug sensitivity score in assay [1], in assay [2] and in assay [3] were 0.45 ± 0.64, 0 and 0.25 ± 0.35, respectively.

On to `CNC(=O)c1cc(COc2nnc(Nc3ccc(Cl)cc3)c3ccoc23)ccn1` [Telatinib], for which the values for the drug sensitivity score in assay [1], in assay [2] and in assay [3] were 0.1 ± 0.14, 0 and 0, respectively.

With `CN1CCC(COc2cnc(-c3cccc(Cn4nc(-c5cccc(C#N)c5)ccc4=O)c3)nc2)CC1` [Tepotinib], the drug sensitivity score in assay [1] was 2.8 ± 1.3; in assay [2], 0; in assay [3] it was 2.5 ± 3.5.
